Data on 17 compounds can be found in patent publication US20210070748A1, “INHIBITORS OF BRUTONS TYROSINE KINASE” (Pharmacyclics LLC, priority 2015, published 2021).

Type in all cases: biochemical
In one test the target is EGFR (Homo sapiens, UniProt P00533). Kind of test: Inhibition of a panel of kinases, in vitro HotSpot kinase assay: EGFR. The settings on record: D-compounds panel data; 1 μM ATP. The method, then: (§1) The degree of inhibition of a panel of kinases is determined using the in vitro HotSpot kinase assay (purified enzymes, ^33P-ATP, an appropriate substrate and 1 μM ATP).
In another test the target is LCK (Homo sapiens, UniProt P06239). Kind of test: Inhibition of a panel of kinases, in vitro HotSpot kinase assay: LCK. Particulars: D-compounds panel data; 1 μM ATP; read-out: IC50 LCK.
The target of the next test is T1, ITK (Homo sapiens, UniProt Q08881).
T1 sequence (Q08881 1-620): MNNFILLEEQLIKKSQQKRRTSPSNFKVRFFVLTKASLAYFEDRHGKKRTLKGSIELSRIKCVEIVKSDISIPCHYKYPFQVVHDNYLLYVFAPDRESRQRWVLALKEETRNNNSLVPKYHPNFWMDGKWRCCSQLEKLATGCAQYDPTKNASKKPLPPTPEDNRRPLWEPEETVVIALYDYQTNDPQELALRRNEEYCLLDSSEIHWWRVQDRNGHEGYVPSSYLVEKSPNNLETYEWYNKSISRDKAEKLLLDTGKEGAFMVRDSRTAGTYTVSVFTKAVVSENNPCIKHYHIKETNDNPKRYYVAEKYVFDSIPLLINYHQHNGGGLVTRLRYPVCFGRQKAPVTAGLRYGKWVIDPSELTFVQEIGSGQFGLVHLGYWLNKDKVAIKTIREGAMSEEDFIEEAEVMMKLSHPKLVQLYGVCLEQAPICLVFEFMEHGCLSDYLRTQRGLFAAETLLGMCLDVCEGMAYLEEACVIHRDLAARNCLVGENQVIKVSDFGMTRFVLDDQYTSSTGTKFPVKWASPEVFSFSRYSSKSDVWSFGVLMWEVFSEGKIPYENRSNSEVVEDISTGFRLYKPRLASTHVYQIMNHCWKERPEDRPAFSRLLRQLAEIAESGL
Kind of test: Inhibition of a panel of kinases, in vitro HotSpot kinase assay: ITK. Particulars: D-compounds panel data; 1 μM ATP. The method, then: as §1

Another test concerns the target T2, BTK-WT (Homo sapiens, UniProt Q06187).
T2 construct: purified from insect cells as a full-length construct containing an N-terminal 6X-His tag; His6 (N); made in house; host or cells: insect cells (baculovirus Sf21 in Method B)
In words: Btk in vitro inhibitory activity (one of Method A TR-FRET, Method B electrophoretic mobility shift, Method C radiometric filter binding). The settings on record: D-compounds panel data; read-out: IC50 BTK-WT.

T2 sequence (Q06187 whole entry): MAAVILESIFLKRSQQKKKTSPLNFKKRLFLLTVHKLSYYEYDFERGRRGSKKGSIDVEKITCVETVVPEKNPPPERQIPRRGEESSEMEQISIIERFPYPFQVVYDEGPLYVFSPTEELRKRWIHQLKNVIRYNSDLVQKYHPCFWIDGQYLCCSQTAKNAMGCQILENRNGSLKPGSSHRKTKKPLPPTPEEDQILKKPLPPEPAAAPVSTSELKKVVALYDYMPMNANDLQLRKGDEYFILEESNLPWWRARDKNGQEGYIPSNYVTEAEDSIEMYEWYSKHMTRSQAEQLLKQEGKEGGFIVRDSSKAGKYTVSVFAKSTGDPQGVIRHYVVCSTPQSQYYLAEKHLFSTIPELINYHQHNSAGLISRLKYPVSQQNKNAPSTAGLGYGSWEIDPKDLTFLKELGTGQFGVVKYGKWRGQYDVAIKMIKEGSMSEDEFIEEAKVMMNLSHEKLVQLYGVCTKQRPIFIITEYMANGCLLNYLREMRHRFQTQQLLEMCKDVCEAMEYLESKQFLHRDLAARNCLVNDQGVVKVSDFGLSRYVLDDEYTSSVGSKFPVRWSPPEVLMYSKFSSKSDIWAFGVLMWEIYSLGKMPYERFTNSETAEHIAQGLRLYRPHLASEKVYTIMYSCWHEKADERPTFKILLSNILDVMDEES
Chain of EGFR (P00533 25-1210): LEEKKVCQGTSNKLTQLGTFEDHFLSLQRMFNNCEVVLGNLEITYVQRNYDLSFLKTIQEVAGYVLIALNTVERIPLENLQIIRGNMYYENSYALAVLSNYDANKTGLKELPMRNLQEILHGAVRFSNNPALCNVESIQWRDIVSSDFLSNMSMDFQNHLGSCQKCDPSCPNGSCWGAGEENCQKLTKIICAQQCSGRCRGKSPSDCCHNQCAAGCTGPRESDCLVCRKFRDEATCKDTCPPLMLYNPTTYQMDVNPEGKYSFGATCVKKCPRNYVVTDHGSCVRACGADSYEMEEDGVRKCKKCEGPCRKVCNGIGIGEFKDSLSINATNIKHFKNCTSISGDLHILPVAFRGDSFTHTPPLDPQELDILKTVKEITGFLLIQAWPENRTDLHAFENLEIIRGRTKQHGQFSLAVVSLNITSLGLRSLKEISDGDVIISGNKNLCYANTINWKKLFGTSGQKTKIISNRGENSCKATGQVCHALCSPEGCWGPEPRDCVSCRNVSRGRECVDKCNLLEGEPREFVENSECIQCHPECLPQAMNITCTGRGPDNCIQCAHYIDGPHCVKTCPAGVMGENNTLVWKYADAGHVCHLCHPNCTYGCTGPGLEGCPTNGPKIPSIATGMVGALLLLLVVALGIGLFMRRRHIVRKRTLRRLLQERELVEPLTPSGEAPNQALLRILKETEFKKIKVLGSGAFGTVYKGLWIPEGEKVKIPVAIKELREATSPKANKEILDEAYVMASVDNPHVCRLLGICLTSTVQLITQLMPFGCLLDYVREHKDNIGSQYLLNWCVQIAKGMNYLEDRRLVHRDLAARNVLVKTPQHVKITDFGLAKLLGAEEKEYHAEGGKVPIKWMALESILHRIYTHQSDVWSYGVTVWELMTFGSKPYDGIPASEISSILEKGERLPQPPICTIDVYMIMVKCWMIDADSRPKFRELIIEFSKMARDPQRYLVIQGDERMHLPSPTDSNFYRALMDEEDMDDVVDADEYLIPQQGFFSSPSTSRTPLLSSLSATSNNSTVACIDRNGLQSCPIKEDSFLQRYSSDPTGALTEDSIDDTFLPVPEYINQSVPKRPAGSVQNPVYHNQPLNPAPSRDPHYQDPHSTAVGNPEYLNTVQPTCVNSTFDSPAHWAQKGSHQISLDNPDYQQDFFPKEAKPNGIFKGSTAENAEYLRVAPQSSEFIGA
Chain of LCK (P06239 whole entry): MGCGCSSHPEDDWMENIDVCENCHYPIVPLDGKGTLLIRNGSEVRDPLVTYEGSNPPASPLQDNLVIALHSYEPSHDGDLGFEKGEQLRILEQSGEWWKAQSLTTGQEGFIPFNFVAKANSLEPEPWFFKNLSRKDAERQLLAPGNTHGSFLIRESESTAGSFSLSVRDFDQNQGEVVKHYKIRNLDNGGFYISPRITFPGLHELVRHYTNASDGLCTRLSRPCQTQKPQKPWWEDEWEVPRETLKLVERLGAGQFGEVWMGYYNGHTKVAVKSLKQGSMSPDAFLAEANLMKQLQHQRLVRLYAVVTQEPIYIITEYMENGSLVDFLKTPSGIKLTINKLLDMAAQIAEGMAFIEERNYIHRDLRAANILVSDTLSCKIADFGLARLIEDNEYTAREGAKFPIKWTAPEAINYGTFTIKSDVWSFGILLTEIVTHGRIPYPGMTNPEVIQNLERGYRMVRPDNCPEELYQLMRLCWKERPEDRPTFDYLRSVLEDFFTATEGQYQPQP

Take `C[C@@H]1[C@H](NC(=O)c2ccc(C3CC3)cc2)CCCN1c1cnc(C(N)=O)c(Nc2cc(CN3CCCCC3)ns2)n1` [Example D-140, 5-[(2R,3R)-3-(4-cyclopropylbenzamido)-2-methylpiperidin-1-yl]-3-{[3-(piperidin-1-ylmethyl)-1,2-thiazol-5-yl]amino}pyrazine-2-carboxamide]: the IC50 against EGFR was 1 to 10 µM; at LCK, 0.01 to 0.1 µM; at ITK it was 0.01 to 0.1 µM; at BTK-WT it was at most 0.01 µM.
As for `Cc1cccc(-c2cnc(C3CCCN(c4cnc(C(N)=O)c(Nc5cnn(C)c5)n4)C3)[nH]2)c1` [Example D-148, 3-[(1-methyl-1H-pyrazol-4-yl)amino]-5-{3-[5-(3-methylphenyl)-1H-imidazol-2-yl]piperidin-1-yl}pyrazine-2-carboxamide], the IC50 against EGFR was in the range of 1 to 10 µM; at LCK it was 0.1 to 1 µM; against ITK, 1 to 10 µM; on BTK-WT, 0.01 to 0.1 µM.
For the compound `C[C@@H]1[C@H](NC(=O)c2ccc(C3CC3)cc2)CCCN1c1cnc(C(N)=O)c(Nc2ccc(C3(C)CCN(C4CCCC4)CC3)cc2)n1` [Example D-112, 3-{[4-(1-cyclopentyl-4-methylpiperidin-4-yl)phenyl]amino}-5-[(2R,3R)-3-(4-cyclopropylbenzamido)-2-methylpiperidin-1-yl]pyrazine-2-carboxamide], the IC50 was 0.1 to 1 µM at EGFR, under 0.01 µM on LCK, 0.01 to 0.1 µM against ITK and at most 0.01 µM on BTK-WT.
On the same counts, the results for `C[C@@H]1[C@H](NC(=O)c2ccc(C3CC3)cc2F)CCCN1c1cnc(C(N)=O)c(Nc2ccc(CN3CCN(C)CC3)cc2)c1` [Example D-125, 5-[(2R,3R)-3-(4-cyclopropyl-2-fluorobenzamido)-2-methylpiperidin-1-yl]-3-({4-[(4-methylpiperazin-1-yl)methyl]phenyl}amino)pyridine-2-carboxamide] are over 10 µM, 0.1 to 1 µM, 1 to 10 µM and at most 0.01 µM.
Regarding `C[C@@H]1[C@H](NC(=O)c2ccc(C3CC3)cc2)CCCN1c1cnc(C(N)=O)c(Nc2ccc(N3CCC(C(C)(C)O)CC3)cc2)n1` [Example D-100, 5-[(2R,3R)-3-(4-cyclopropylbenzamido)-2-methylpiperidin-1-yl]-3-({4-[4-(2-hydroxypropan-2-yl)piperidin-1-yl]phenyl}amino)pyrazine-2-carboxamide], the 50% inhibitory concentration (IC50) at EGFR was 1 to 10 µM; at LCK it was 0.1 to 1 µM; against ITK, 0.1 to 1 µM; on BTK-WT it was at most 0.01 µM.
As for `C[C@@H]1[C@H](NC(=O)c2ccc(C(F)(F)F)cc2)CCCN1c1cnc(C(N)=O)c(Nc2ccc(N3CCN(C)CC3)cc2)n1` [Example D-11, 5-[(2R,3R)-2-methyl-3-[4-(trifluoromethyl)benzamido]piperidin-1-yl]-3-{[4-(4-methylpiperazin-1-yl)phenyl]amino}pyrazine-2-carboxamide], the IC50 against EGFR was 0.1 to 1 µM; on LCK, 0.01 to 0.1 µM; against ITK, 0.1 to 1 µM; on BTK-WT it was at most 0.01 µM.
For `Cc1ccc(-c2cnc([C@@H]3CCCN(c4cnc(C(N)=O)c(Nc5cc(C)ns5)n4)C3)[nH]2)cc1` [Example D-137, 3-[(3-methyl-1,2-thiazol-5-yl)amino]-5-[(3R)-3-[5-(4-methylphenyl)-1H-imidazol-2-yl]piperidin-1-yl]pyrazine-2-carboxamide], the IC50 was 1 to 10 µM against EGFR, 1 to 10 µM on LCK, over 10 µM on ITK and 0.01 to 0.1 µM on BTK-WT.
On to `C[C@@H]1[C@H](NC(=O)c2ccc(C3CC3)cc2)CCCN1c1cnc(C(N)=O)c(Nc2ccc(OC3C[C@H]4CC[C@@H](C3)N4C)cc2)n1` (stereo partly drawn) [Example D-106, 5-[(2R,3R)-3-(4-cyclopropylbenzamido)-2-methylpiperidin-1-yl]-3-[(4-{[(1R,5S)-8-methyl-8-azabicyclo[3.2.1]octan-3-yl]oxy}phenyl)amino]pyrazine-2-carboxamide], for which the IC50 is 0.1 to 1 µM on EGFR, 0.01 to 0.1 µM on LCK, 0.01 to 0.1 µM against ITK and at most 0.01 µM on BTK-WT.
For the compound `C[C@@H]1[C@H](NC(=O)N(C)C)CCCN1c1cnc(C(N)=O)c(Nc2cc(CN3CCOCC3)ns2)n1` [Example D-118, 5-[(2R,3R)-3-[(dimethylcarbamoyl)amino]-2-methylpiperidin-1-yl]-3-{[3-(morpholin-4-ylmethyl)-1,2-thiazol-5-yl]amino}pyrazine-2-carboxamide], the IC50 is 1 to 10 µM at EGFR, 0.1 to 1 µM at LCK, 0.1 to 1 µM at ITK and at most 0.01 µM at BTK-WT.
In the case of `C[C@@H]1[C@H](NC(=O)c2ccc(C3CC3)cc2F)CCCN1c1cnc(C(N)=O)c(Nc2ccc3ncccc3c2)n1` [Example D-114, 5-[(2R,3R)-3-(4-cyclopropyl-2-fluorobenzamido)-2-methylpiperidin-1-yl]-3-[(quinolin-6-yl)amino]pyrazine-2-carboxamide], the IC50 against EGFR was over 10 µM; on LCK it was over 10 µM; at ITK, over 10 µM; at BTK-WT it was 0.01 to 0.1 µM.
In the case of `C[C@@H]1[C@H](n2ccc3cc(C4CC4)ccc3c2=O)CCCN1c1cnc(C(N)=O)c(Nc2ccc(N3CCN(C)CC3)cc2)n1` [Example D-6, 5-[(2R,3R)-3-(6-cyclopropyl-1-oxo-1,2-dihydroisoquinolin-2-yl)-2-methylpiperidin-1-yl]-3-{[4-(4-methylpiperazin-1-yl)phenyl]amino}pyrazine-2-carboxamide], the IC50 on EGFR is 0.1 to 1 µM; at LCK, 0.01 to 0.1 µM; at ITK it was 0.1 to 1 µM; at BTK-WT it was at most 0.01 µM.
As for `C[C@@H]1[C@H](NC(=O)c2ccc(C3CC3)cc2F)CCCN1c1cnc(C(N)=O)c(Nc2ccc(S(C)(=O)=O)cc2)n1` [Example D-133, 5-[(2R,3R)-3-(4-cyclopropyl-2-fluorobenzamido)-2-methylpiperidin-1-yl]-3-[(4-methanesulfonylphenyl)amino]pyrazine-2-carboxamide], the IC50 was 1 to 10 µM against EGFR, 0.1 to 1 µM on LCK, 0.1 to 1 µM at ITK and at most 0.01 µM at BTK-WT.
For the compound `C[C@@H]1[C@H](NC(=O)N(C)C)CCCN1c1cnc(C(N)=O)c(Nc2ccc(N3CCN(C)CC3)cc2)n1` [Example D-111, 5-[(2R,3R)-3-[(dimethylcarbamoyl)amino]-2-methylpiperidin-1-yl]-3-{[4-(4-methylpiperazin-1-yl)phenyl]amino}pyrazine-2-carboxamide], the IC50 was 0.1 to 1 µM against EGFR, 0.1 to 1 µM at LCK, 0.1 to 1 µM against ITK and at most 0.01 µM at BTK-WT.
On to `C[C@@H]1[C@H](NC(=O)c2ccc(C3CC3)cc2F)CCCN1c1cnc(C(N)=O)c(Nc2cc(CN(C)C)ns2)n1` [Example D-122, 5-[(2R,3R)-3-(4-cyclopropyl-2-fluorobenzamido)-2-methylpiperidin-1-yl]-3-({3-[(dimethylamino)methyl]-1,2-thiazol-5-yl}amino)pyrazine-2-carboxamide], for which the IC50 against EGFR was 1 to 10 µM; at LCK, 0.01 to 0.1 µM; at ITK, 0.1 to 1 µM; at BTK-WT it was at most 0.01 µM.
As to `C[C@@H]1[C@H](NC(=O)c2ccc(C3CC3)cc2F)CCCN1c1cnc(C(N)=O)c(Nc2ccc(N3CCN(C4CCCC4)CC3)cc2)n1` [Example D-5, 3-{[4-(4-cyclopentylpiperazin-1-yl)phenyl]amino}-5-[(2R,3R)-3-(4-cyclopropyl-2-fluorobenzamido)-2-methylpiperidin-1-yl]pyrazine-2-carboxamide], the IC50 on EGFR was 0.1 to 1 µM; at LCK, 0.1 to 1 µM; at ITK, 0.1 to 1 µM; on BTK-WT, at most 0.01 µM.
In the case of `C[C@@H]1CC[C@H](NC(=O)c2ccc(C3CC3)cc2)CN1c1cnc(C(N)=O)c(Nc2cnn(C)c2)n1` [Example D-145, 5-[(2R,5S)-5-(4-cyclopropylbenzamido)-2-methylpiperidin-1-yl]-3-[(1-methyl-1H-pyrazol-4-yl)amino]pyrazine-2-carboxamide], the IC50 was 1 to 10 µM on EGFR, 1 to 10 µM at LCK, over 10 µM at ITK and 0.01 to 0.1 µM on BTK-WT.
Regarding `C[C@@H]1[C@H](NC(=O)c2ccc(C3CC3)cc2)CCCN1c1cnc(C(N)=O)c(Nc2ccc(N3CCN(C)CC3)cc2F)n1` [Example D-103, 5-[(2R,3R)-3-(4-cyclopropylbenzamido)-2-methylpiperidin-1-yl]-3-{[2-fluoro-4-(4-methylpiperazin-1-yl)phenyl]amino}pyrazine-2-carboxamide], the IC50 against EGFR was 0.1 to 1 µM; at LCK it was 0.1 to 1 µM; at ITK, 0.1 to 1 µM; on BTK-WT it was at most 0.01 µM.
